Reference: US9120749B2, “Quinoline derivatives and MELK inhibitors containing the same” (ONCOTHERAPY SCIENCE, INC., priority 2010, dated 2015)
Where two headings read alike, the source gives them in different places.

Columns and labels:
[1] = test system: HT-1197 cells; assay: Cell-based assay: anti-proliferative activity, Cell Counting Kit-8, 72 hours (HT-1197, negative control without MELK expression); details: Homo sapiens, HT1197, 72 h, HT1197 cells (negative control, no MELK expression), 72 hours
Summary of the method: (§1)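 Cellular growth is read by CCK-8 colorimetric kit 72 h after inhibitor addition to seeded cells, and IC50 values are derived from the resulting data; MELK protein levels in these lines are checked beforehand by immunoblotting whole crude lysate.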

[2] = test system: DU4475; assay: Cell-based assay: anti-proliferative activity, Cell Counting Kit-8, 72 hours (DU4475); details: Homo sapiens, DU-4475, DU4475 cells
[3] = biological target: MELK (Homo sapiens, UniProt Q14680); assay: Kinase assay: MELK activity, phosphorylation of FITC-labeled histone H3 peptide measured by IMAP fluorescence polarization; type: biochemical; details: read-out: IC50 (μM) (kinase assay)
MELK, sequence (Q14680 whole entry, looked up): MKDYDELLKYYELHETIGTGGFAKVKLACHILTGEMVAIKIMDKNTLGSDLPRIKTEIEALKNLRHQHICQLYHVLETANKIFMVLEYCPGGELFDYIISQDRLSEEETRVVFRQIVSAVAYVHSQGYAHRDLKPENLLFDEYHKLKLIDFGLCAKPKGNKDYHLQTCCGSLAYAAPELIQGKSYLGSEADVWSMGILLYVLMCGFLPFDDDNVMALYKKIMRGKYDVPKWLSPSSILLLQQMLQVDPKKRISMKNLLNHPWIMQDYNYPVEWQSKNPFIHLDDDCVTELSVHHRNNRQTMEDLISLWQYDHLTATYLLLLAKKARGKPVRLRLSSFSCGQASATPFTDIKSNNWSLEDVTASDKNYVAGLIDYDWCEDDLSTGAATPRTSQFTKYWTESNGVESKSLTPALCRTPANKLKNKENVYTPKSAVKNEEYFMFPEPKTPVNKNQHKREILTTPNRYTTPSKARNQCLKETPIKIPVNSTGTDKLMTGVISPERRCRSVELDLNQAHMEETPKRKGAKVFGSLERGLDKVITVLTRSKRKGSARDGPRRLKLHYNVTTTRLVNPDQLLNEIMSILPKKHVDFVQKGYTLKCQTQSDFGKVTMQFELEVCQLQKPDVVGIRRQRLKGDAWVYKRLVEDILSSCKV
Summary of the method: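 FP readout: FITC-histone H3 peptide phosphorylation, read 0.5 h (RT) after stopping with 3x volume of IMAP progressive binding solution. Final DMSO 1%.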

[4] = test system: A549 cells; assay: Cell-based assay: anti-proliferative activity, Cell Counting Kit-8, 72 hours (A549); details: Homo sapiens, A549, 72 h, 72 hours
Summary of the method: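 A549 cells were seeded in 96-well plates and exposed to candidate inhibitors for 72 hours. Cell growth was then measured with Cell Counting Kit-8, and IC50 values were calculated from the resulting growth data.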

[5] = test system: T47D cells; assay: Cell-based assay: anti-proliferative activity, Cell Counting Kit-8, 72 hours (T47D); details: Homo sapiens, T47D, 72 h
Summary of the method: as §1

[6] = 50 micro-M ATP, FITC-labeled histone H3 peptide substrate, IMAP fluorescence polarization

Structure (SMILES) | IC50 [1] | IC50 [2] | IC50 [3] | IC50 [4] | IC50 [5] | IC50 [3, 6]
NC[C@H]1CC[C@H](Nc2c(C(=O)C3CC3)cnc3ccc(-c4cc(F)c(O)c(Cl)c4)cc23)CC1 [Example 501, {4-[trans-4-(Aminomethyl)cyclohexylamino]-6-(3-chloro-5-fluoro-4-hydroxyphenyl)quinolin-3-yl}(cyclopropyl)methanone] | 1.2 µM | 0.031 µM | 0.046 µM | 0.57 µM | 0.061 µM | –
CC(=O)c1cnc2ccc(-c3cc(F)c(O)c(Cl)c3)cc2c1N1CCN(C(=O)CN(C)C)CC1 [Example 484, 1-(4-(3-acetyl-6-(3-chloro-5-fluoro-4-hydroxyphenyl)quinolin-4-yl)piperazin-1-yl)-2-(dimethylamino)ethanone] | 17 µM | 0.58 µM | 0.0069 µM | 3.4 µM | 1.1 µM | –
COc1cc(-c2ccc3ncc(C(C)=O)c(N4CCN(C(=O)CN(C)C)CC4)c3c2)cc(Cl)c1O [Example 477, 1-(4-(3-acetyl-6-(3-chloro-4-hydroxy-5-methoxyphenyl)quinolin-4-yl)piperazin-1-yl)-2-(dimethylamino)ethanone] | 4.7 µM | 0.3 µM | 0.0016 µM | 0.36 µM | 0.87 µM | –
O=C(c1cnc2ccc(-c3cc(Cl)c(O)c(Cl)c3)cc2c1Nc1ccc(N2CCNCC2)nc1)C1CC1 [Example 409, Cyclopropyl{6-(3,5-dichloro-4-hydroxyphenyl)-4-[6-(piperazin-1-yl)pyridin-3-ylamino]quinolin-3-yl}methanone] | 1.6 µM | 0.098 µM | – | 0.26 µM | 0.074 µM | 0.0017 µM
COc1cc(-c2ccc3ncc(C(=O)C4CC4)c(Nc4ccc(CN5CCOCC5)cc4)c3c2)cc(Cl)c1O [Example 462] | 6 µM | 1.1 µM | – | 0.7 µM | 0.44 µM | 0.066 µM
CCOc1cc(-c2ccc3ncc(C(C)=O)c(N[C@H]4CC[C@H](N)CC4)c3c2)cc(Cl)c1O [Example 486] | 2.2 µM | 0.13 µM | 0.0021 µM | 0.11 µM | 0.15 µM | –
COc1cc(-c2ccc3ncc(C(=O)C4CC4)c(N[C@H]4CC[C@H](CN)CC4)c3c2)cc(Cl)c1O [Example 493, {4-[trans-4-(Aminomethyl)cyclohexylamino]-6-(3-chloro-4-hydroxy-5-methoxyphenyl)quinolin-3-yl}(cyclopropyl)methanone] | 0.82 µM | 0.068 µM | 0.003 µM | 0.095 µM | 0.078 µM | –
CCN(CC)C1CCC(Nc2c(C(=O)C3CCCC3)cnc3ccc(-c4cc(F)c(O)c(Cl)c4)cc23)CC1 (stereo not shown) [Example 386, (6-(3-chloro-5-fluoro-4-hydroxyphenyl)-4-(4-(diethylamino)cyclohexylamino)quinolin-3-yl)(cyclopentyl)methanone] | 0.78 µM | 0.29 µM | – | 0.4 µM | 0.41 µM | 0.0092 µM
CN(C)Cc1ccc(Nc2c(C(=O)C3CCCC3)cnc3ccc(-c4cc(F)c(O)c(Cl)c4)cc23)cc1 [Example 388, (6-(3-chloro-5-fluoro-4-hydroxyphenyl)-4-(4-((dimethylamino)methyl)phenylamino)quinolin-3-yl)(cyclopentyl)methanone] | 1.5 µM | 0.21 µM | – | 0.52 µM | 0.52 µM | 0.014 µM
CN(C)C[C@H]1CC[C@H](Nc2c(S(C)(=O)=O)cnc3ccc(-c4cc(F)c(O)c(Cl)c4)cc23)CC1 [Example 423] | 2.4 µM | 0.31 µM | – | 0.93 µM | 0.42 µM | 0.0063 µM
O=C(c1cnc2ccc(-c3cc(F)c(O)c(Cl)c3)cc2c1Nc1ccc(CN2CCOCC2)cc1)C1CC1 [Example 460] | 4.2 µM | 0.42 µM | – | 0.59 µM | 0.65 µM | 0.083 µM
C[S+]([O-])c1cnc2ccc(-c3cc(F)c(O)c(Cl)c3)cc2c1N[C@H]1CC[C@H](N)CC1 (stereo partly shown) [Example 498] | 10 µM | 2.8 µM | 0.046 µM | 10 µM | 10 µM | –
COc1cc(-c2ccc3ncc(C(=O)C4CC4)c(N4CCN(CCN5CCCC5)CC4)c3c2)cc(Cl)c1O [Example 394, (6-(3-chloro-4-hydroxy-5-methoxyphenyl)-4-(4-(2-(pyrrolidin-1-yl)ethyl)piperazin-1-yl)quinolin-3-yl)(cyclopropyl)methanone] | 5.3 µM | 0.24 µM | – | 0.25 µM | 0.4 µM | 0.0018 µM
COc1cc(-c2ccc3ncc(C(=O)C4CC4)c(Nc4ccc(Cn5ccnc5)cc4)c3c2)cc(Cl)c1O [Example 490, (4-(4-((1H-imidazol-1-yl)methyl)phenylamino)-6-(3-chloro-4-hydroxy-5-methoxyphenyl)quinolin-3-yl)(cyclopropyl)methanone] | 5.8 µM | 0.86 µM | 0.014 µM | 0.68 µM | 0.78 µM | –
N#Cc1ncc(-c2ccc3ncc(C(=O)C4CC4)c(Nc4ccc(CN5CCOCC5)cc4)c3c2)cn1 [Example 461] | 2 µM | 0.41 µM | – | 1.6 µM | 0.17 µM | 0.015 µM
CCOc1cc(-c2ccc3ncc(C(=O)C4CC4)c(N4CCC(CN(C)C)CC4)c3c2)cc(Cl)c1O [Example 457] | 2.4 µM | 0.21 µM | – | 0.14 µM | 0.22 µM | 0.0024 µM
NC[C@H]1CC[C@H](Nc2c(C(=O)C3CC3)cnc3ccc(-c4cc(Cl)c(O)c(Cl)c4)cc23)CC1 [Example 495, {4-[trans-4-(Aminomethyl)cyclohexylamino]-6-(3,5-dichloro-4-hydroxyphenyl)quinolin-3-yl}(cyclopropyl)methanone] | 3.9 µM | 0.018 µM | 0.0029 µM | 0.35 µM | 0.045 µM | –
COc1cc(-c2ccc3ncc(C(C)=O)c(Nc4ccc(N5CCN(C)CC5)nc4)c3c2)cc(Cl)c1O [Example 483, 1-(6-(3-chloro-4-hydroxy-5-methoxyphenyl)-4-(6-(4-methylpiperazin-1-yl)pyridin-3-ylamino)quinolin-3-yl)ethanone] | 0.89 µM | 0.69 µM | 0.016 µM | 0.64 µM | 0.64 µM | –
O=C(c1cnc2ccc(-c3cc(F)c(O)c(Cl)c3)cc2c1N1CCN(CCN2CCCC2)CC1)C1CC1 [Example 402, (6-(3-chloro-5-fluoro-4-hydroxyphenyl)-4-(4-(2-(pyrrolidin-1-yl)ethyl)piperazin-1-yl)quinolin-3-yl)(cyclopropyl)methanone] | 5.1 µM | 0.48 µM | – | 1.2 µM | 0.88 µM | 0.0058 µM
CC(=O)c1cnc2ccc(-c3cnc(C#N)nc3)cc2c1N[C@H]1CC[C@H](CN(C)C)CC1 [Example 418] | 1.4 µM | 0.5 µM | – | 0.95 µM | 0.23 µM | 0.0073 µM
COc1cc(-c2ccc3ncc(C(=O)C4CC4)c(-c4ccc(C(=O)N5CCN(C)CC5)cc4)c3c2)cc(Cl)c1O [Example 476, (4-(6-(3-chloro-4-hydroxy-5-methoxyphenyl)-3-(cyclopropanecarbonyl)quinolin-4-yl)phenyl)(4-methylpiperazin-1-yl)methanone] | 2.1 µM | 0.5 µM | 0.0081 µM | 0.31 µM | 0.23 µM | –
CN1CCN(Cc2cccc(-c3c(C(=O)C4CC4)cnc4ccc(-c5cc(Cl)c(O)c(Cl)c5)cc34)c2)CC1 [Example 478, cyclopropyl(6-(3,5-dichloro-4-hydroxyphenyl)-4-(3-((4-methylpiperazin-1-yl)methyl)phenyl)quinolin-3-yl)methanone] | 2.9 µM | 0.75 µM | 0.0078 µM | 0.87 µM | 0.53 µM | –
COc1cc(-c2ccc3ncc(C(=O)C4CC4)c(-c4cnc(N5CCN(C)CC5)nc4)c3c2)cc(Cl)c1O [Example 475, (6-(3-chloro-4-hydroxy-5-methoxyphenyl)-4-(2-(4-methylpiperazin-1-yl)pyrimidin-5-yl)quinolin-3-yl)(cyclopropyl)methanone] | 4.7 µM | 1.9 µM | 0.072 µM | 0.79 µM | 0.53 µM | –
C[S+]([O-])c1cnc2ccc(-c3cc(Cl)c(O)c(Cl)c3)cc2c1N[C@H]1CC[C@H](N)CC1 (stereo partly shown) [Example 491] | 10 µM | 2.9 µM | 0.0075 µM | 10 µM | 7 µM | –
O=C(c1cnc2ccc(-c3cc(F)c(O)c(Cl)c3)cc2c1Nc1ccc(Cn2ccnc2)cc1)C1CC1 [Example 489, (4-(4-((1H-imidazol-1-yl)methyl)phenylamino)-6-(3-chloro-5-fluoro-4-hydroxyphenyl)quinolin-3-yl)(cyclopropyl)methanone] | 5.1 µM | 0.97 µM | 0.019 µM | 1.4 µM | 1.1 µM | –
CN(C)CC1CCN(c2c([S+](C)[O-])cnc3ccc(-c4cc(F)c(O)c(Cl)c4)cc23)CC1 (stereo not shown) [Example 467] | 35 µM | 1.2 µM | 0.011 µM | 13 µM | 1.5 µM | –
